Assay results from patent US20260109707A1, “HETEROBIFUNCTIONAL COMPOUNDS AND METHODS OF TREATING DISEASE” (Halda Therapeutics OpCo. Inc., priority 2022, published 2026).
Where two headings read alike, the source gives them in different places.

How the values were obtained:
[1] = test system: T-Rex 293 cell line SC3 cells having increased expression of androgen receptor protein due to exposure to doxycycline; assay: Cellular growth inhibition assay, T-Rex 293 SC3 cells with doxycycline (CellTiter-Glo, 72 hours); format: cell-based; details: T-Rex 293 SC3 cells with increased androgen receptor expression due to doxycycline (10 ng/mL)
Outline: (§1)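 Growth inhibition is measured in an inducible AR-expressing T-Rex 293 clone, SC3, cultured with or without 10 ng/mL doxycycline in hormone-depleted medium. Test compounds are applied for 72 hours. GI50 values derive from CellTiter-Glo 2.0 signal fitted by four-parameter regression.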

[2] = test system: T-Rex 293 cell line SC3 cells lacking increased expression of androgen receptor protein; assay: Cellular growth inhibition assay, T-Rex 293 SC3 cells without doxycycline (CellTiter-Glo, 72 hours); format: cell-based; details: T-Rex 293 cell line SC3 cells not exposed to doxycycline (lacking increased androgen receptor expression)
Outline: as §1

VCaP cells = assay: Cellular growth inhibition assay for VCaP cells (CellTiter-Glo, 72 hours); format: cell-based, human
Outline: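 Luminescent viability signal after 72 h of compound exposure gave GI50 values by four-parameter nonlinear regression. Compounds were added in 0.5% DMSO to cells plated 24 h earlier at 5000/well in DMEM containing 10% FBS.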

| GI50 (VCaP cells; Homo sapiens, VCaP, 72 h) | GI50 (VCaP cells) | SMILES | GI50 ([1]; 72 h) | GI50 [2] | GI50 ([2]; 72 h) | GI50 [1] |
| --- | --- | --- | --- | --- | --- | --- |
| > 3000 nM |  | Cc1sc2c(c1C)C(c1ccc(CC3CCC4(CCCN(c5ccc(C(=O)N[C@H]6CC[C@H](Oc7ccc(C#N)c(Cl)c7)CC6)nn5)C4)C3)cc1)=N[C@@H](C)c1nnc(C)n1-2 (stereo partly drawn) [I-582] | < 500 nM | < 500 nM |  |  |
| < 500 nM |  | Cc1sc2c(c1C)C(c1ccc(CCC3CCN(c4ccc(C(=O)NC5CCC(Oc6ccc(C#N)c(Cl)c6)CC5)nn4)CC3)cc1)=NC(C)c1nnc(C)n1-2 (stereo not drawn) [I-593] | < 500 nM |  | < 500 nM |  |
| < 500 nM |  | Cc1sc2c(c1C)C(c1ccc(C3CCC4(CC3)CCN(c3ccc(C(=O)N[C@H]5CC[C@H](Oc6ccc(C#N)c(Cl)c6)CC5)nn3)C4)cc1)=N[C@@H](C)c1nnc(C)n1-2 (stereo partly drawn) [I-494] |  |  | < 500 nM | < 500 nM |
|  | < 500 nM | Cc1sc2c(c1C)C(c1ccc(N3CCC4(CCCN(c5ccc(C(=O)N[C@H]6CC[C@H](Oc7ccc(C#N)c(Cl)c7)CC6)nn5)C4)CC3)cc1)=NC(C(F)(F)F)c1nnc(C)n1-2 (stereo partly drawn) [I-721] |  |  | > 3000 nM | < 500 nM |
| < 500 nM |  | Cc1sc2c(c1C)C(c1ccc(CCCC3CCN(c4ccc(C(=O)N[C@H]5CC[C@H](Oc6ccc(C#N)c(Cl)c6)CC5)nn4)CC3)cc1)=N[C@@H](C)c1nnc(C)n1-2 [I-592] | < 500 nM |  | < 500 nM |  |
|  | 500 to 1500 nM | Cc1sc2c(c1C)C(c1ccc(COC3CCC4(CCCN(c5ccc(C(=O)N[C@H]6CC[C@H](Oc7ccc(C#N)c(Cl)c7)CC6)nn5)C4)C3)cc1)=N[C@@H](C)c1nnc(C)n1-2 (stereo partly drawn) [I-624] |  | 500 to 1500 nM |  | < 500 nM |
|  | 500 to 1500 nM | Cc1sc2c(c1C)C(c1ccc(COC3CCC4(CCCN(c5ccc(C(=O)N[C@H]6CC[C@H](Oc7ccc(C#N)c(Cl)c7)CC6)nn5)C4)C3)cc1)=N[C@@H](C)c1nnc(C)n1-2 (stereo partly drawn) [I-513] |  |  | < 500 nM | < 500 nM |
|  | > 3000 nM | Cc1sc2c(c1C)C(c1ccc(CC3CC4(CCN(c5ccc(C(=O)N[C@H]6CC[C@H](Oc7ccc(C#N)c(Cl)c7)CC6)nn5)CC4)C3)cc1)=NC(C(F)(F)F)c1nnc(C)n1-2 (stereo partly drawn) [I-728] |  |  | > 3000 nM | > 3000 nM |
|  | 500 to 1500 nM | Cc1sc2c(c1C)C(c1ccc(CC3CCC4(C3)CN(c3ccc(C(=O)N[C@H]5CC[C@H](Oc6ccc(C#N)c(Cl)c6)CC5)nn3)CCO4)cc1)=N[C@@H](C)c1nnc(C)n1-2 (stereo partly drawn) [I-578] | < 500 nM | > 3000 nM |  |  |
|  | < 500 nM | Cc1sc2c(c1C)C(c1ccc(COC3CCC4(CCCN(c5ccc(C(=O)N[C@H]6CC[C@H](Oc7ccc(C#N)c(Cl)c7)CC6)nn5)C4)C3)cc1)=N[C@@H](C)c1nnc(C)n1-2 (stereo partly drawn) [I-625] |  | < 500 nM |  | < 500 nM |

Further lines, the compound ahead of its results:

| SMILES | GI50 (VCaP cells; Homo sapiens, VCaP, 72 h) | GI50 (VCaP cells) | GI50 ([1]; 72 h) | GI50 [2] | GI50 ([2]; 72 h) | GI50 [1] |
| --- | --- | --- | --- | --- | --- | --- |
| Cc1sc2c(c1C)C(c1ccc(CCN3[C@H](C)CN(c4ccc(C(=O)N[C@H]5CC[C@H](Oc6ccc(C#N)c(Cl)c6)CC5)nn4)C[C@@H]3C)cc1)=N[C@@H](Cc1ncco1)c1nnc(C)n1-2 [I-466] | < 500 nM |  | < 500 nM |  | < 500 nM |  |
| Cc1sc2c(c1C)C(c1ccc(COC3CCC4(C3)CN(c3ccc(C(=O)N[C@H]5CC[C@H](Oc6ccc(C#N)c(Cl)c6)CC5)nn3)CCO4)cc1)=N[C@@H](C)c1nnc(C)n1-2 (stereo partly drawn) [I-586] |  | 500 to 1500 nM |  |  | < 500 nM | < 500 nM |
| Cc1sc2c(c1C)C(c1ccc(NCCCN3CCN(c4ncc(C(=O)N[C@H]5CC[C@H](Oc6ccc(C#N)c(Cl)c6)CC5)cn4)CC3)cc1)=NC(Cc1ncco1)c1nnc(C)n1-2 (stereo partly drawn) [I-793] | < 500 nM |  | < 500 nM |  | < 500 nM |  |
| CCNC(=O)C[C@@H]1N=C(c2ccc(N(C)C3CC(OC4CCN(c5ncc(C(=O)N[C@H]6CC[C@H](Oc7ccc(C#N)c(Cl)c7)CC6)cn5)CC4)C3)cc2)c2c(sc(C)c2C)-n2c(C)nnc21 (stereo partly drawn) [I-69] | < 500 nM |  | < 500 nM |  | 500 to 1500 nM |  |
| Cc1sc2c(c1C)C(c1ccc(OC3CC4(C3)CC3(CCN(c5ccc(C(=O)N[C@H]6CC[C@H](Oc7ccc(C#N)c(Cl)c7)CC6)nn5)CC3)C4)cc1)=NCc1nnc(C)n1-2 [I-453] | < 500 nM |  | < 500 nM |  | > 3000 nM |  |
| CC[C@@H]1N=C(c2ccc(N3CC4(CC(CCc5ccc(C(=O)N[C@H]6CC[C@H](Oc7ccc(C#N)c(Cl)c7)CC6)nn5)C4)C3)cc2)c2c(sc(C)c2C)-n2c(C)nnc21 [I-611] | < 500 nM |  | < 500 nM |  | > 3000 nM |  |
| Cc1sc2c(c1C)C(c1ccc(Cl)cc1)=N[C@@H](CC(=O)NCCOCCOCCOCCOCCOCCOCCOC1CCN(c3ccc(C(=O)N[C@H]4CC[C@H](Oc5ccc(C#N)c(Cl)c5)CC4)nn3)CC1)c1nnc(C)n1-2 [I-4, N-[4-(3-chloro-4-cyano-phenoxy)cyclohexyl]-6-[14-[2-[2-[2-[2-[2-[2-[2-[[2-[(9S)-7-(4-chlorophenyl)-4,5,13-trimethyl-3-thia-1,8,11,12-tetrazatricyclo[8.3.0.2,6]trideca-2(6),4,7,10,12-pentaen-9-yl]acetyl]amino]ethoxy]ethoxy]ethoxy]ethoxy]ethoxy]ethoxy]ethoxy]-1-piperidyl]pyridazine-3-carboxamide] | < 500 nM |  | 500 to 1500 nM |  | > 3000 nM |  |
| Cc1sc2c(c1C)C(c1ccc(N3CCC4CN(c5ccc(C(=O)N[C@H]6CC[C@H](Oc7ccc(C#N)c(Cl)c7)CC6)nn5)CCC4C3)cc1)=NC1(CC1)c1nnc(C)n1-2 (stereo partly drawn) [I-564] |  | > 3000 nM |  | 500 to 1500 nM |  | < 500 nM |
| Cc1sc2c(c1C)C(c1cccc(OC3CC4(CCCN(c5ccc(C(=O)N[C@H]6CC[C@H](Oc7ccc(C#N)c(Cl)c7)CC6)nn5)C4)C3)c1)=N[C@@H](C)c1nnc(C)n1-2 (stereo partly drawn) [I-686] | < 500 nM |  | < 500 nM | > 3000 nM |  |  |
| CC[C@@H]1N=C(c2ccc(C3CCC4(CCCN(c5ccc(C(=O)N[C@H]6CC[C@H](Oc7ccc(C#N)c(Cl)c7)CC6)nn5)C4)CC3)cc2)c2c(sc(C)c2C)-n2c(C)nnc21 (stereo partly drawn) [I-653] |  | < 500 nM |  | > 3000 nM |  | < 500 nM |
| Cc1sc2c(c1C)C(c1ccc(N3C4CC(=O)CC3CN(c3ncc(C(=O)N[C@H]5CC[C@H](Oc6ccc(C#N)c(Cl)c6)CC5)cn3)C4)cc1)=NC(Cc1ncco1)c1nnc(C)n1-2 (stereo partly drawn) [I-802] | < 500 nM |  |  | 500 to 1500 nM |  | < 500 nM |
| Cc1sc2c(c1C)C(c1ccc(CCC3CC4(CCCN(c5ccc(C(=O)N[C@H]6CC[C@H](Oc7ccc(C#N)c(Cl)c7)CC6)nn5)C4)C3)cc1)=NCc1nnc(C)n1-2 (stereo partly drawn) [I-548] | 1500 to 3000 nM |  | < 500 nM |  | < 500 nM |  |
| Cc1sc2c(c1C)C(c1ccc(C3CCC4(CCN(c5ccc(C(=O)N[C@H]6CC[C@H](Oc7ccc(C#N)c(Cl)c7)CC6)nn5)CC4)C3)cn1)=NC1(CC1)c1nnc(C)n1-2 (stereo partly drawn) [I-691] | < 500 nM |  | < 500 nM |  | > 3000 nM |  |
| COCC[C@@H]1N=C(c2ccc(C3CCC4(CCCN(c5ccc(C(=O)N[C@H]6CC[C@H](Oc7ccc(C#N)c(Cl)c7)CC6)nn5)C4)CC3)cc2)c2c(sc(C)c2C)-n2c(C)nnc21 (stereo partly drawn) [I-656] | < 500 nM |  | < 500 nM |  | > 3000 nM |  |
| Cc1sc2c(c1C)C(c1ccc(C3CCC4(CC3)CCN(c3ccc(C(=O)N[C@H]5CC[C@H](Oc6ccc(C#N)c(Cl)c6)CC5)nn3)C4)cc1)=NC1(CC1)c1nnc(C)n1-2 (stereo partly drawn) [I-517] |  | > 3000 nM | < 500 nM |  | > 3000 nM |  |
| Cc1sc2c(c1C)C(c1ccc(CC3CCC4(CCCN(c5ccc(C(=O)N[C@H]6CC[C@H](Oc7ccc(C#N)c(Cl)c7)CC6)nn5)C4)C3)nc1)=N[C@@H](C)c1nnc(C)n1-2 (stereo partly drawn) [I-665] | < 500 nM |  | < 500 nM |  | > 3000 nM |  |
